Calls of active or inactive are those of the source.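 Rule for the calls: active = compounds giving half or more protection of infected cells from virus-caused growth loss, again on retest; inactive = the rest.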 Where a SMILES comes first, the peptide text is derived from it. Where only a bound is given, the exact number is not on record here.

The experiment deals with CEM cells HIV-1 protection, formazan growth assay. The experiment is described as follows: NCI AIDS Antiviral Assay. To be noted: for IC50: measured here: growth of uninfected CEM cells. The procedure, abridged:
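Screen of anti-HIV-1 activity in human CEM cells using a formazan-based growth measurement at five drug concentrations. Hits with 50% or greater protection were repeated, and confirmation required reproducible complete protection.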

As a reminder, the EC50 is the concentration giving half of the maximal effect. By IC50 is commonly meant the concentration that gives 50% inhibition. Higher therefore signals weaker potency. In the case of `CN(/N=C/c1ccc(Cl)c(Cl)c1)C1=NCCN1`, the EC50 is greater than 200 µM and the IC50 amounted to 16.2 µM. `O=c1sc2ccccc2c2c1C=CCO2`: the EC50 is greater than 46.8 µM and the IC50 is greater than 46.8 µM. On to `COc1ccc(OP2OCC(C)O2)cc1` (stereo not given), for which the EC50 was greater than 1100 µM and the IC50 was 46.8 µM. The like results for `N#C/C(=C\c1cccc(N)c1)c1ccccc1` were, in that order, greater than 200 µM and 57.5 µM. On the same counts, the results for `O=NNc1ccc(Sc2ccc(NN=O)cn2)nc1` are greater than 100 µM and greater than 100 µM. Consider `O=C(O)CCCCCCCC(O)C(O)CCCCCCCC(=O)O` (stereo not given), for which the EC50 was greater than 195 µM and the IC50 was greater than 195 µM. Regarding `Cn1c(CC(O)(C(F)(F)F)C(F)(F)F)c(C(O)(C(F)(F)F)C(F)(F)F)c2ccccc21`, the EC50 is greater than 200 µM and the IC50 was determined as 3.39 µM. The like results for `Nc1cc([N+](=O)[O-])ccc1N1C(=O)CCCC1=O` were, in that order, greater than 200 µM and greater than 200 µM. Regarding `COc1cccc(C2SC(N)=Nc3c2c(C)nn3C(=O)Cc2ccccc2)c1` (stereo not given), the 50% effective concentration (EC50) was 79.4 µM and the IC50 was found to be 129 µM.

As for `CC(=O)Nc1cc(Cl)cc2[nH]c(C)nc12`, the EC50 is greater than 955 µM and the IC50 worked out at 676 µM. The like results for `Oc1ccc2ccccc2c1CN1CCOCC1` were, in that order, 132 µM and 186 µM. In the case of `OCC1=CCN2C[C@@H](O)[C@@H](O)[C@@H]12`, the EC50 is greater than 200 µM and the IC50 was greater than 200 µM. For the molecule `C[N+](C)(C)CC(=O)N/N=C(/CC(=O)CC(C1=C(O)c2ccccc2OC1)c1ccccc1)C(=O)Nc1cccc(Cl)c1` (stereo not given), the EC50 was greater than 151 µM and the IC50 was greater than 151 µM. Regarding `Cc1nc2ccc(S(=O)(=O)Nc3ccccc3Cl)cc2c(=O)n1NC(=O)CNc1ccccc1Cl`, the EC50 was greater than 200 µM and the IC50 is 170 µM.

Consider `COC1CCC(=O)N1CCn1c(SCc2ccccc2)nc2ccccc21` (stereo not given), for which the EC50 is greater than 93.3 µM and the IC50 is greater than 93.3 µM. As to `O=c1[nH]c(=O)c2c([nH]1)[nH]c1ccccc12`, the EC50 is greater than 200 µM and the IC50 is greater than 200 µM. For the molecule `Cc1ccc(NC(=S)/N=C/c2c(O)[nH]c(=O)[nH]c2=O)c(C)c1`, the EC50 is greater than 200 µM and the concentration for half-maximal inhibition (IC50) was determined as 151 µM. On the same counts, the results for `COc1cc(C2C=C(c3ccccc3)Oc3cc4c(cc32)OCO4)cc(OC)c1OC` (stereo not given) are greater than 2 µM and 0.631 µM. The like results for `CCN(CC)CC(=O)NC1c2ccccc2Oc2c(C)cccc21` (stereo not given) were, in that order, greater than 288 µM and 145 µM.

As to `COc1ccc(/C=N/NC(=O)c2ccc(O)c(CN(C)C)c2)cc1`, the EC50 was greater than 200 µM and the IC50 was greater than 200 µM. Turning to `COC(=O)[C@@](NC(=O)OCc1ccccc1)([C@H](C)O)C(F)(F)F`, the EC50 was greater than 200 µM and the IC50 came to 110 µM. For the molecule `CCCCC1OCCOC1C1COCCO1` (stereo not given), the EC50 was greater than 195 µM and the 50% inhibitory concentration (IC50) was greater than 195 µM.

As to `CC(C)=NNC=N/C(C#N)=C(\N)C#N`, the EC50 was greater than 200 µM and the IC50 is greater than 200 µM.

Regarding `CC(=S)N=Cc1c(N)[nH]n(-c2ccccc2)c1=O`, the EC50 is greater than 200 µM and the IC50 is greater than 200 µM. With `O=c1c(O)c(-c2ccccc2)oc2c(CP(=O)(O)O)cccc12`, the EC50 is greater than 200 µM and the IC50 was found to be 162 µM. The like results for `CC(=O)Oc1ccc2c(c1)Cc1cc(N=[N+]([O-])c3ccc4c(c3)Cc3cc(OC(C)=O)ccc3-4)ccc1-2` were, in that order, greater than 200 µM and greater than 200 µM. With `O=C1OC(CCCl)(c2ccccc2)CC1CN1CCOCC1` (stereo not given), the EC50 was greater than 692 µM and the IC50 was 10.5 µM. Regarding `CC[C@@H]1C[C@H]2CC3c4c(c5cc(OC)ccc5n4C)CCN(C2)C31`, the result was inactive. Turning to `NC(CO)C(=O)NC(CO)C(=O)NC(Cc1ccc(O)cc1)C(=O)NC(CO)C(=O)NC(CO)C(=O)O` (stereo not given) (H-SSYSS-OH; configuration not given here), the EC50 is greater than 93.3 µM and the IC50 is greater than 93.3 µM. On to `CSC(SC)=C(C(=O)O)P(=O)(O)O`, for which the EC50 is greater than 200 µM and the 50% inhibitory concentration (IC50) is greater than 200 µM. `C#CCNC(CCCN=C(N)N)C(=O)O` (stereo not given): the EC50 is greater than 200 µM and the IC50 is greater than 200 µM. For `Nc1ncnc2c1ncn2[C@H]1C(CO)[C@@H](CO)C12SCCCS2` (stereo not given in full), the EC50 is greater than 191 µM and the IC50 was greater than 191 µM. Regarding `CC1(CO)NC(C(=O)O)Cc2c1[nH]c1ccccc21` (stereo not given), the EC50 is greater than 200 µM and the IC50 was greater than 200 µM. Regarding `O=C1C(=O)C2(CC1S(=O)(=O)c1ccccc1)c1ccccc1-c1ccccc12` (stereo not given), the outcome was inactive.

As to `CCOC(=O)/C(C#N)=C/c1ccccc1Cl`, the result was inactive. As to `COc1ccc(NC(=S)Nc2cccc(C)n2)cc1`, the EC50 was greater than 200 µM and the concentration for half-maximal inhibition (IC50) is greater than 200 µM. With `CCOC(=O)CN=C1NNS(=O)(=O)c2ccccc21`, the EC50 is greater than 200 µM and the IC50 was 110 µM. For `C/C=C/C1(C)/C(=N\O)C(C)(CCC)C(=O)N1O` (stereo not given), the EC50 was 25.1 µM and the IC50 came to 1050 µM.

On to `OCC1OC(n2cnc3c(=S)nc[nH]c32)C(O)C1O` (stereo not given), for which the EC50 was greater than 871 µM and the IC50 was 617 µM. On to `O=C1CC(c2ccccc2)NC(=O)N1CCN1CCOCC1` (stereo not given), for which the EC50 is greater than 200 µM and the IC50 is greater than 200 µM. With `C/C(=C/c1cc(=O)n(C)c2ccccc12)[N+](=O)[O-]`, the EC50 is greater than 200 µM and the IC50 came out at 0.832 µM. Regarding `CC1=CN2C(c3ccc(Cl)cc3)=NON(c3ccc(C)cn3)C2C=C1` (stereo not given), the EC50 is greater than 10.2 µM and the IC50 was greater than 10.2 µM.

For `Cc1cc2c3ccccc3nc2c2cc[nH]c(C)c12`, the EC50 is greater than 110 µM and the IC50 came out at 5.25 µM. The like results for `Nc1[nH]nc2nc3ccc(C(F)(F)F)cc3nc12` were, in that order, greater than 200 µM and 29.5 µM. The like results for `O=C(CCCN1CCC(Nc2ccc(F)cc2)(c2nnnn2C2CCCCC2)CC1)c1ccc(F)cc1` were, in that order, greater than 200 µM and 16.6 µM.

For the molecule `O=S1(=O)C(c2ccc(F)cc2)=C(O)c2cc3ccccc3nc21`, the result was inactive. On to `Cn1c(-c2csc(-c3ccc(Cl)cc3)n2)n[nH]c1=S`, for which the EC50 is greater than 200 µM and the IC50 was greater than 200 µM. `Cc1cc(CC(O)(C(F)(F)F)C(F)(F)F)cc(CC(O)(C(F)(F)F)C(F)(F)F)n1`: the outcome was inactive. Turning to `Cc1csc2[n+]1C(=O)/C(=C\c1ccc([N+](=O)[O-])cc1)S2`, the EC50 was greater than 200 µM and the half-maximal inhibitory concentration (IC50) stood at 29.5 µM. Take `Cc1ccc2cc(NC(=O)CN)c3ccc(C)nc3c2n1`: the EC50 was greater than 20 µM and the IC50 came out at 3.72 µM. Take `NC12c3c4cccc3Oc3cccc(c31)Oc1cccc(c12)O4`: the EC50 is greater than 50.1 µM and the IC50 is 28.8 µM.

Consider `Cc1cn(C2OC(CO[Si](C)(C)C(C)(C)C)/C(=C\C#N)C2O[Si](C)(C)C(C)(C)C)c(=O)[nH]c1=O` (stereo not given), for which the EC50 is greater than 200 µM and the IC50 was greater than 200 µM. With `CC1C(O)O[C@@H]2O[C@@]3(C)CC[C@H]4[C@H](C)CC[C@@H]1[C@@]24O3` (stereo not given in full), the EC50 was greater than 200 µM and the half-maximal inhibitory concentration (IC50) was greater than 200 µM.

As for `CCN(CC)CCOc1ccc(C(=C2CCCCC2)c2ccc(OCCN(CC)CC)cc2)cc1`, the EC50 is greater than 38.9 µM and the IC50 came out at 2.19 µM. On the same counts, the results for `CCOC(=O)NN(C(=O)OCC)C(C(=O)c1ccccc1)N(NC(=O)OCC)C(=O)OCC` are greater than 200 µM and greater than 200 µM. With `COc1ccc(-c2cc(C(=O)Nc3cccc(C(F)(F)F)c3)[nH]c(=S)n2)cc1`, the EC50 is greater than 162 µM and the concentration for half-maximal inhibition (IC50) was greater than 162 µM. Consider `CC(C)N(C(=O)C12C3C4C5C3C1(C(=O)N(C(C)C)C(C)C)C5C42)C(C)C` (stereo not given), for which the EC50 is greater than 100 µM and the IC50 was greater than 100 µM. Take `N#Cc1cccc(/C=C2\Cc3ccccc3C2=O)c1`: the EC50 was greater than 5.89 µM and the IC50 was greater than 5.89 µM.

For `NC(=O)CC(NC(=O)OCc1ccccc1)C(=O)NC(Cc1ccccc1)C(=O)NC(Cc1ccccc1)NC(=O)C(Cc1c[nH]c2ccccc12)C(=O)O` (stereo not given), the EC50 is greater than 50.1 µM and the IC50 was greater than 50.1 µM.

Take `CCOC1(OCC)N=C(N)C2(C#N)C3(C(=O)N(C(C)C)N=C3C)C12C#N` (stereo not given): the EC50 is greater than 200 µM and the IC50 was 166 µM. `Cn1ccnc1C(c1nccn1C)C(C)(C)[N+](=O)[O-]`: the EC50 is greater than 339 µM and the IC50 is greater than 339 µM. With `COc1ccc(/C=C2/SC(=Nc3ccccc3)N(NC(=O)Cc3ccccc3)C2=O)cc1`, the EC50 was greater than 214 µM and the half-inhibitory concentration (IC50) came to 148 µM. On the same counts, the results for `CN(C)[C@@H]1C(=O)C(C(=O)NCNCCCC(=O)O)=C(O)[C@@]2(O)C(=O)C3=C(O)c4c(O)cccc4[C@@](C)(O)[C@H]3C[C@@H]12` are greater than 1.78 µM and greater than 1.78 µM. On to `Cc1cc(C)c2c(c1N)C(=O)CCO2`, for which the outcome was inactive.

As for `CCOC(=O)c1cc2c([nH]1)c(O)cc1c2ccn1Cc1ccccc1`, the EC50 is greater than 200 µM and the IC50 was 29.5 µM.

As for `COC(=O)C([O][Ge]([CH3])([CH3])[CH3])c1ccccc1` (stereo not given), the EC50 is greater than 251 µM and the IC50 is greater than 251 µM. As to `O=c1c(Cl)c(Cl)cnn1CCc1ccncc1`, the EC50 was greater than 132 µM and the IC50 amounted to 7.08 µM. With `O=CNC(CSSCC(NC=O)C(=O)O)C(=O)O` (stereo not given), the EC50 was greater than 200 µM and the IC50 was greater than 200 µM.

With `O=C1NC(=O)C(CN2C(=O)/C(=C/c3cccc(O)c3)SC2=S)C(=O)N1`, the EC50 was greater than 200 µM and the IC50 was found to be 91.2 µM.

In the case of `Cc1cc(S(=O)(=O)O)c(NC(=O)C(=O)C2C=CCS2(=O)=O)cc1Cl` (stereo not given), the EC50 is greater than 631 µM and the IC50 was greater than 631 µM. Regarding `O=C1CCC(N2C(=O)C3C(C2=O)C2(Cl)C(Cl)=C(Cl)C3(Cl)C2(Cl)Cl)C(=O)N1` (stereo not given), the EC50 was greater than 200 µM and the IC50 is greater than 200 µM. With `N#C/C(C(=O)Nc1ccc(Cl)cc1)=C(/N)N1CCOCC1`, the EC50 was greater than 200 µM and the IC50 is greater than 200 µM. Take `NC1=CN2c3ccccc3N(CC(=O)O)C2C=C1` (stereo not given): the EC50 is greater than 200 µM and the IC50 is greater than 200 µM.
